Data taken from a melting point compilation (Tetko et al.; mined from patent text by program, amines drawn as free bases though some values may be those of a salt).
Residues, ends and D or L forms follow the SMILES beside them. *: point of attachment. Tos = Cc1ccc(S(=O)(=O)*)cc1; OtBu = CC(C)(C)O*

Compound | melting point
CC(C)=NOCc1nc2c(N)nc3cc(Br)cnc3c2n1CC(C)C | 176 to 178 °C
CCOC(=O)C1=C(c2ccc(OC)cc2)Nc2n[nH]cc2C1c1ccccc1Cl (stereo not drawn) | 211 °C
Nc1nc(N)c2c(ccc3c2c2c(n3Cc3ccccc3)CCCC2)n1 | 224 to 226 °C
O=C(NCCc1ccccc1)C1CCc2ccccc2C1 (stereo not drawn) | 86 to 87 °C
CCCc1cc(NC(=O)N2CCN(c3ccccc3OC)CC2)c(OC)nc1C | 109 to 110 °C
CN(C)c1ccc(C2CCCN2S(=O)(=O)c2ccc(Cl)cc2)cc1F (racemic) | 99 °C
COC(=O)CCC(=O)c1ccc(O)c(Cl)c1 | 85 to 89 °C
COc1cc(OC)c(NC(=O)[C@H]2[C@H](c3ccc(S(N)(=O)=O)cc3)C2(C)C)cc1Cl (relative stereo) | 248 to 251 °C
N#Cc1nn(-c2c(Cl)cc(C(F)(F)F)cc2Cl)c(CO)c1SC(F)(F)F | 118 °C
CC(=O)c1ccc(NCc2ccc3ccc4nc(C)[nH]c(=O)c4c3c2)cc1 | > 235 °C
CC(=O)NC[C@H]1CN(c2ccc(C(=O)c3cnc4cnc(Br)cn34)cc2)C(=O)O1 | 216 to 220 °C
COC(=O)c1cc(Cl)ccc1N(C(C)C)S(=O)(=O)c1ccc(C)cc1 | 114 to 116 °C
CN(C)c1ccc(C(c2cc(C(C)(C)C)c(O)c(C(C)(C)C)c2)N2CCCCC2)cc1 (stereo not drawn) | 184 to 185 °C
CCCCCCCCCCCCCCCCCCOc1cccc(C(=O)C(=O)OC)c1 | 50 to 52 °C
CC(=O)Oc1ccc(C(=O)OCC[C@H](C)COC(=O)c2ccc(OC(C)=O)cc2)cc1 | 46 °C
COc1c(Cl)ccc(-c2nc(C(=O)Cl)cc(Cl)c2Cl)c1F | 134 to 136 °C
COC(=O)c1c(Cl)cc(Cl)cc1NC(=O)CSc1ccccc1C(=O)O | 165 to 166 °C
COc1ccc(C=O)c(Cl)c1OCc1ccccc1 | 86 to 88 °C
CC(=NOCCOc1ccc(CC2SC(=O)NC2=O)cc1)c1cccc(Cl)c1 (stereo not drawn) | 82 to 84 °C
O=C(O)/C=C/c1ccc(Oc2c(-c3ccccc3)c(CCC(F)(F)F)cc3cc(O)ccc23)cc1 | 118 to 120 °C
CC(=NOCc1ccc(OCc2nc(-c3ccccc3)oc2C)cc1)C(=O)O | 147 to 148 °C
O=c1[nH]c2cnccc2c2nc(-c3ccccc3F)nn12 | 285 to 287 °C
CCOC(=O)c1cccc(-n2nc(C(=O)OCC)c3csc(N)c3c2=O)c1 | 159 to 160 °C
CCCCNC(=O)N1CC(Oc2cccc(C(F)(F)F)c2)C1 | 108 to 109 °C
Cc1c(O[Si](C)(C)C(C)(C)C)cc(O[Si](C)(C)C(C)(C)C)cc1C(=O)O[Si](C)(C)C(C)(C)C | 64 °C

Compound | melting point
CNc1nc(-c2cccc([N+](=O)[O-])c2)c2cc(OC)c(OC)cc2n1 | 218 to 220 °C
O=c1nc(N2CCC=C(c3ccccc3)C2)sc2ncccc12 | 167 to 169 °C
CCOC(=O)Cc1c(-c2ccccc2)n[nH]c1-c1ccccc1 | 117 to 118 °C
O=C(Cn1nc(-c2ccccc2O)nc1-c1ccccc1O)NCCO | 208 to 211 °C
CC(O)COc1ccc2c(c1)OC(C)(C)CC2=O (stereo not drawn) | 111 to 113 °C
CCOCN1C(C)=C(C(=O)OC)C(c2cccc([N+](=O)[O-])c2)C(C(=O)OC)=C1C | 86 to 88 °C
O=C(O)COc1ccc(SCc2ccc(OCc3ccc(Cl)cc3Cl)cc2)c2c1CCC2 | 149 to 150 °C
COC(=O)c1cc(C#CC(C)(C)O)cnc1C1=NC(C)(C(C)C)C(=O)N1 (stereo not drawn) | 142 to 145 °C
Cc1ccc(S(=O)(=O)OCC2COc3cc(F)c([N+](=O)[O-])cc3O2)cc1 (stereo not drawn) | 106 to 107 °C
O=c1oc2cc(OCC3CO3)ccc2c2c1CCCC2 (stereo not drawn) | 120 to 121 °C
CCCCCCCCCCCCCC(=O)Nc1ccc(Cl)c(NC2=NN(c3c(Cl)cc(Cl)cc3Cl)C(=O)C2n2ccnc2)c1 (stereo not drawn) | 172 to 174 °C
COC(=O)[C@@H]1CSCc2c(O[Si](C)(C)C(C)(C)C)cc(OC)c(C)c2C(=O)OC[C@H](O)C(=O)N1 | 237 to 240 °C
CCN(CC)C(=O)CC1CCN(Cc2cnc3c(C)c(NC(=O)c4ccc(-c5ccc(F)cc5)cc4)ccc3c2)CC1 | 158 to 160 °C
CC1(O)CCC2C3CCC45OC4(C)C(=O)C(C#N)CC5(C)C3CCC21C (stereo not drawn) | 166 to 167 °C
CC(=O)OCC(=O)C1(O)C(C)CC2C3CCC4CC(=O)CCC4(C)C3CCC21C (stereo not drawn) | 125 °C
CC(=O)Oc1ccc(C(=O)c2nc3ccc(OC(C)=O)cc3s2)cc1 | 183 °C
Cc1ccc(S(=O)(=O)C(CC(=O)C(C)(C)C)c2ccc(Cl)cc2)cc1 (stereo not drawn) | 170 to 171 °C
Cc1oc(-c2ccccc2)nc1CCOc1cccc(-c2cccc(OC3(C(=O)O)CCC3)c2)c1 | 127 °C
Cc1cc(F)ccc1-c1cc(OC2SCC(O)C(O)C2O)ccn1 (stereo not drawn) | 147 °C
N#Cc1ccc(C(F)(F)F)cc1Sc1ccccc1N | 102 to 104 °C
CCC(O)(CCCCO)C(=O)Nc1ccnc(Br)c1 (stereo not drawn) | 103 °C
CCOC(=O)c1cc(NCc2ccccc2)c(Nc2ccc(C)cc2C)c(S(N)(=O)=O)c1 | 167 to 168 °C
CCCn1c(=O)c2nc(-c3cccc(/C=C/C(=O)O)c3)[nH]c2n(CC2CCCCC2)c1=O | > 350 °C
CC(=O)c1cn(Cc2ccccc2)c(=O)n(Cc2ccc(F)cc2)c1=O | 106 to 108 °C
CC(C)n1c(=O)ccc2cnc(Nc3cccnc3)nc21 | 156 to 158 °C

Compound | melting point
Cc1ccc(Cl)c2c1N(C1CC1)CNS2(=O)=O | 215 to 217 °C
Cc1cc2c(cc1C13CC1CCC3=Cc1ccc(C(=O)O)cc1)C(C)(C)CCC2(C)C (stereo not drawn) | 274 to 275 °C
C=CCN1CCN(c2cc3c(cc2F)c(=O)c(C(=O)O)cn3CC)CC1 | 236 °C
CC(=O)N1CCC(Cl)c2nc3ccccc3c(C)c2C1 (stereo not drawn) | < 20 °C
C[C@H]1C[C@@](O)(c2cccc(Sc3cc4c(cc3F)N(C)C(=O)CC4)c2)CCO1 | 90 to 92 °C
CCCCc1c(Cl)cccc1NC(=O)C(C)(C)C | 88 to 89 °C
OC1CSC(Oc2cncc(-c3ccc(Cl)nc3)c2)C(O)C1O (stereo not drawn) | 211 °C
c1cc(-c2n[nH]c3c2Cc2ccc(CN4CCSCC4)cc2-3)cs1 | 193 to 195 °C
CCC(OCC(F)(F)F)c1ccc(Cl)c2nc3n(c12)CCCN3c1ccc(N(C)C)nc1C (stereo not drawn) | 144 to 146 °C
Clc1cccc(Nc2ncnc3[nH]nc(NCc4ccc5c(c4)OCO5)c23)c1 | 220 to 222 °C
O=C1Cc2ccccc2Sc2cc(Cl)c(F)cc21 | 125 to 126 °C
COc1cc(Nc2c(C#N)cnc3c(-c4ccc(CN(C)C)cc4)csc23)c(Cl)cc1Cl | 201 to 202 °C
CCCCCCCCCCCCN1CN=C(NC(=O)Nc2c(C(C)C)cccc2C(C)C)N1 | 128 to 140 °C
CS(=O)(=O)c1ccc(Cl)c2[nH]ccc12 | 160 to 162 °C
O=C(c1ncc[nH]1)c1cc(F)c(F)cc1Cl | 80 to 81 °C
COC1=C(C(=O)c2ccc(C)cc2)C(c2ccc(OC(F)(F)F)cc2)N(c2ccc(C)nn2)C1=O (stereo not drawn) | 206 to 207 °C
ON=CCc1ccc(F)cc1 | 113 to 115 °C
CN=C(Cl)c1ccc([N+](=O)[O-])cc1 | 67 to 73 °C
COc1ccc(C(=O)Nc2ccccc2)cc1NS(=O)(=O)c1ccc(C(=O)O)cc1 | 212 to 214 °C
C/C=C/CONC(=O)c1nc(-c2ccc(Cl)c(OC)c2F)cc(N)c1Cl | 154 to 156 °C
CCN1CCCC1CNC(=O)c1c(OC)c(Cl)cc(Br)c1OC (stereo not drawn) | 124 to 125 °C
c1cnc2ncncc2c1 | 249 to 252 °C
Cc1ccc(S(=O)(=O)n2c(C3(O)C=CC(=O)c4ccccc43)cc3ccccc32)cc1 (stereo not drawn) | 110 to 112 °C
C=C(C)c1cc(CC)n(-c2ccc([N+](=O)[O-])cc2)n1 | 61 to 63 °C
CCOC(=O)C(=CNc1ccccc1[N+](=O)[O-])C(=O)OCC | 104 to 105 °C

Compound | melting point
CCOc1ncc(S(=O)(=O)N2CCN(CC)CC2)cc1-c1nc2c(CC)n(CCOC)nc2c(=O)[nH]1 | 158 to 160 °C
CCCCCOc1ccc(C=O)cc1O | 55 to 56 °C
Cc1cc(N)c([N+](=O)[O-])cc1NC(=O)OCCCl | 192 °C
CCOC(=O)c1cc2c(OCC(O)CNC(C)(C)C)cc(C)cc2[nH]1 (stereo not drawn) | 181 to 183 °C
COc1ccc(CNC(=O)c2ccccc2N)cc1 | 104 to 105 °C
CC(=O)NC(n1cncn1)C(Cl)(Cl)CCl (stereo not drawn) | 135 °C
Cc1ccc2c(n1)N(CCCN(C)C)c1ccccc1N(C)C2=O | 130 to 131 °C
O=C1CCOc2cc(S)ccc21 | 144 to 145 °C
CCOc1cc2ncnc(N3CCN(C(=O)Nc4ccc([N+](=O)[O-])cc4)CC3)c2cc1OCC | 120 to 121 °C
Cc1cn(C2OC(C)(CO)C(O)C2F)c(=O)[nH]c1=O (stereo not drawn) | 80 °C
NC(=O)[C@@H]1CCCN1C(=O)CNC(=O)OCc1ccccc1 | 142 to 143 °C
Cc1sc(N)c(C(=O)c2ccc(Cl)cc2)c1CN1CCN(c2cccc(F)c2)CC1 | 140 to 141 °C
CCCC(CC1CCc2c(cccc2OCC(=O)OC)C1)=NO (stereo not drawn) | 95.9 to 97 °C
CS(=O)(=O)Nc1ccc(OCCCN2C(=O)c3ccccc3C2=O)cc1 | 176 to 178 °C
CCOC(=O)C(=CNc1nncs1)C(=O)c1cc(F)c(Cl)nc1Cl | 137 to 140 °C
Cc1cnc2c(c1)C[C@H](Cc1ccc(O)cc1)CC2 | 157 to 158 °C
CCCCOCC(O)COc1ccc(-c2nc(OC)nc(-c3ccc(OCC(O)COCCCC)cc3O)n2)c(O)c1 (stereo not drawn) | 98 to 99 °C
Cc1ccc(S(=O)(=O)N2CCC[C@H]2C(=O)N[C@@H](CC(=O)OC(C)(C)C)C(=O)O)cc1 (Tos-Pro-Asp(OtBu)-OH) | 153 to 155 °C
COc1ccc(-c2nc(=O)c3ccccc3o2)cc1 | 175 to 178 °C
COCCC(=O)C1(N)C=CC(N(C)C(C)=O)=C(C#N)C1 (stereo not drawn) | 143 to 145 °C
COc1ccccc1-c1cc(F)cc(OCc2ccc3c(-c4ccoc4)cc(C#N)nc3c2)c1 | 132 to 134 °C
O=C(c1ccc(Cl)cc1)c1ccc(CSC(F)(F)F)cc1 | 63 to 65 °C
CCCCCCCCCCCCCCCCCCCCCCSC[C@H](NC(=O)CCCCCCCCCCCCCCC)C(=O)O | 90 to 92 °C
